Test results as given in patent US20220265619A1, “COMBINATION TREATMENT OF LIVER DISEASES USING FXR AGONISTS” (Novartis AG, priority 2019, published 2022).
“Also recorded” adds a separate entry of the source.

What was measured:
human hepatocytes = experiment: LDL uptake by in vitro human hepatocytes treated with FXR agonists; assay type: cell-based
Excerpt: To mitigate the increase in peripheric LDL, we hypothesize that treating the subjects in the evening (from about 6 pm to about […], e.g. from about 8 pm to about 11 pm, preferably around 9 pm) would be reduce the impact of the drug on LDL. […] In addition, during night time, the hepatocytes rely less on cholesterol coming from the food intake (LDL and others) since the body is then fasting but more on the intrahepatic production of cholesterol via HMGCOa reductase; the activity of this enzyme is the highest during the night. Indeed, in human, whilst the Cyp7A1 activity peak at 1 and 9 pm, intracellular cholesterol levels in hepatocytes are the highest during the night (between midnight and 4 AM).

[1] = NASH patients; cited from earlier work
[2] = Licogliflozin 2 week study in healthy subjects and patients with T2DM; assay type: in vivo, human
Procedure: (§1) i.e., (2S,3R,4R,5S,6R)-2-(3-((2,3-dihydrobenzo[b][1,4]dioxin-6-yl)methyl)-4-ethylphenyl)-6-(hydroxymethyl)tetrahydro-2H-pyran-3,4,5-triol. […] Licogliflozin at 150 mg daily dose results in a significant weight loss in obese patients (˜6%) after 12 week treatment.

[3] = Dose finding study of licogliflozin in Japanese patients with obesity disease; assay type: in vivo, human; conditions: for placebo-subtracted percentage change in body weight from baseline at Week 12: Japanese patients with obesity disease
Procedure: This study was a randomized, double-blind, placebo controlled, dose finding study to evaluate the effect of licogliflozin (2.5, 10, 25 and 50 mg qd) in 126 Japanese patients with obesity disease. The primary objective was to examine the dose-response relationship of licogliflozin treatment in body weight reduction relative to placebo at 12 weeks. The secondary objectives included assessment of responder rates, change in parameters related to complications, visceral and subcutaneous fat area, and safety through 12 weeks of treatment.

[4] = Drug-drug interaction study of tropifexor and licogliflozin in healthy but overweight to obese subjects; assay type: in vivo, human
Procedure: Sixteen subjects with a BMI of 25 to 35 kg/m2 were enrolled. […] Standard safety assessments were performed, with adverse event monitoring. Steady state PK parameters from Period 1 or 2 (single agent PK) were compared with that from Period 3 (combination PK) to assess the effect of potential drug interaction.

[5] = Licogliflozin 150 mg daily, 12 week treatment in obese patients / normoglycemic and dysglycemic subjects; assay type: in vivo, human
Procedure: as §1

[6] = Phase 2 dose range finding study of licogliflozin in obese patients (CLIK066B2201); assay type: in vivo, human; conditions: obese patients (placebo 19.2%)
Procedure: A dose of 30 mg QD is expected to achieve approximately 70% of maximum observed efficacy (using weight loss as a downstream marker for efficacy; CLIK066B2201). Licogliflozin is currently being tested as 30 mg and 150 mg QD monotherapy in NASH (CLIK066X2204). […] To minimize the risk of GI adverse effects of the SGLT1 inhibition in the gut such as diarrhea, licogliflozin will be administered in the evening.

[7] = Placebo-controlled, randomized Phase 2a study of licogliflozin in NASH patients, interim analysis (NCT03205150, CLIK066X2204); assay type: in vivo, human; conditions: for patients achieving at least 5% absolute reduction in liver fat: 12 weeks (placebo 18.8%); for proportion of patients with at least a 30% relative reduction in liver fat content: 12 weeks (placebo 25%); for patients reporting diarrhea (adverse event): 12 weeks (placebo 38.9%)
Procedure: METHOD: Patients with histologically confirmed NASH (F1-F3) or phenotypic NASH (BMI≥27 kg/m^2 in non-Asians or 23 kg/m^2 in Asians, ALT≥50 (males) or 35 (females) and type 2 diabetes (T2DM)) received daily oral licogliflozin at 150 mg, 30 mg or placebo in a 2:2:1 ratio for 12 weeks (NCT03205150). The primary endpoint is the effect on ALT level after 12 weeks of treatment. Secondary endpoints include improvement in body weight, liver fat content and AST, amongst others. The study size is 110 of which 77 have completed (placebo (n=18); licogliflozin 30 mg (n=25) and licogliflozin 150 mg (n=34)) and are included in the interim analysis.

[8] = FLIGHT-FXR (NCT02855164) Part C interim analysis, tropifexor in fibrotic NASH; assay type: in vivo, human; conditions: for ALT, LS mean absolute change (SE) from baseline to Week 12: placebo −8.9 (4.19); for GGT, LS mean absolute change (SE) from baseline to Week 12: placebo −2.5 (3.55); for Body weight, LS mean absolute change (SE) from baseline to Week 12: placebo −1.14 (0.36)
[9] = Tropifexor in NASH patients, Parts A and B of study CLJN452A2202
[10] = licogliflozin 50 mg in the presence of tropifexor 140 μg vs alone
[11] = 200 μg once daily, n = 46, P < 0.001
[12] = tropifexor 140 μg in the presence of licogliflozin 50 mg vs alone
[13] = 10 to 90 μg daily for 12 weeks, NASH patients
[14] = all doses (10, 30, 60 and 90 μg), 12 weeks

SMILES: CC[C@H]1[C@@H](O)[C@@H]2[C@H](CC[C@]3(C)[C@@H]([C@H](C)CCC(=O)O)CC[C@@H]23)[C@@]2(C)CC[C@@H](O)C[C@@H]12 [obeticholic acid, 6α-ethyl-chenodeoxycholic acid]
- LDL uptake by hepatocytes (human hepatocytes; FIG. 5): reduce the LDL uptake by hepatocytes in a dose dependent manner
- LDL uptake by hepatocytes (human hepatocytes; FIG. 5, listed as OCA): decreased LDL uptake
- safety on long term administration [1]: associated with pruritus, as well as with lipid abnormalities

SMILES: CCc1ccc([C@@H]2O[C@H](CO)[C@@H](O)[C@H](O)[C@H]2O)cc1Cc1ccc2c(c1)OCCO2 [licogliflozin, (2S,3R,4R,5S,6R)-2-(3-((2,3-dihydrobenzo[b][1,4]dioxin-6-yl)methyl)-4-ethylphenyl)-6-(hydroxymethyl)tetrahydro-2H-pyran-3,4,5-triol]
- pharmacokinetic profile [2]: favorable pharmacokinetic profile
- safety and tolerability [2]: safe and tolerated
- placebo-adjusted weight loss ([2]; over 2 weeks): up to 3%
- placebo-subtracted percentage change in body weight from baseline at Week 12 ([3]; 2.5 mg qd): −1.99%
- placebo-subtracted percentage change in body weight from baseline at Week 12 ([3]; 10 mg qd): −3.00%
- placebo-subtracted percentage change in body weight from baseline at Week 12 ([3]; 25 mg qd): −3.54%
- placebo-subtracted percentage change in body weight from baseline at Week 12 ([3]; 50 mg qd): −3.91%
- safety ([3]; 2.5, 10, 25 and 50 mg qd over 12 weeks): safe with no ketoacidosis and no new safety signals
- body weight, dose dependence ([3]; 2.5, 10, 25 and 50 mg qd, 12 weeks): dose-dependent reduction in body weight
- patients achieving reduction of ≥3% in body weight ([3]; 10, 25 and 50 mg qd dose groups (placebo 7.1%; p≤0.002 for all)): ≥ 50%
- increase of mean peak plasma concentration [4, 10]: 8%
- increase of total exposure [4, 10]: 12%
- weight loss ([5]; 150 mg daily dose, obese patients, after 12 week treatment): ~6%
- safety and tolerability ([5]; 150 mg once daily, twelve weeks, normoglycemic and dysglycemic subjects): generally safe and well tolerated with diarrhea observed as a dose-limiting toxicity
- incidence of diarrhea ([6]; 2.5 mg QD for 24 weeks): 18.4%
- incidence of diarrhea ([6]; 10 mg QD for 24 weeks): 15.8%
- incidence of diarrhea ([6]; 50 mg QD for 24 weeks): 55.3%
- incidence of diarrhea ([6]; 150 mg QD for 24 weeks): 68.8%
- placebo adjusted reduction from baseline levels of ALT ([7]; 30 mg daily oral, 12 weeks, p=NS): 19%
- patients achieving at least 5% absolute reduction in liver fat ([7]; 30 mg): 43.5%
- proportion of patients with at least a 30% relative reduction in liver fat content ([7]; 30 mg): 39.5%
- patients reporting diarrhea (adverse event) ([7]; 30 mg): 40%
- placebo adjusted reduction in HbA1c (absolute change) ([7]; 30 mg, 12 weeks, p=0.001): 0.81%
- reduction in GGT ([7]; 30 mg, 12 weeks, p=0.014): 26%
- reduction in AST ([7]; 30 mg, 12 weeks, p=0.043): 23%
- absolute reduction in liver fat ([7]; 30 mg, 12 weeks, p=NS): 2.71%
- relative reduction in liver fat content ([7]; 30 mg, 12 weeks, p=NS): 10%
- ALT and liver fat, interim analysis ([7]; 150 mg QD monotherapy in NASH): promising reduction of ALT and liver fat
- gastrointestinal events (mainly diarrhea), interim analysis ([7]; 150 mg QD monotherapy in NASH): significant incidence of gastrointestinal events
- placebo adjusted reduction from baseline levels of ALT ([7]; 150 mg daily oral, 12 weeks, p=0.036): 27%
- patients achieving at least 5% absolute reduction in liver fat ([7]; 150 mg): 63.3%
- proportion of patients with at least a 30% relative reduction in liver fat content ([7]; 150 mg): 66.7%
- patients reporting diarrhea (adverse event) ([7]; 150 mg): 76.5%
- placebo adjusted reduction in HbA1c (absolute change) ([7]; 150 mg, 12 weeks, p=0.0001): 0.96%
- reduction in GGT ([7]; 150 mg, 12 weeks, p=0.001): 32%
- reduction in AST ([7]; 150 mg, 12 weeks, p=0.004): 30%
- absolute reduction in liver fat ([7]; 150 mg, 12 weeks, p=0.01): 4.45%
- relative reduction in liver fat content ([7]; 150 mg, 12 weeks, p=0.01): 22%
- safety and tolerability ([7]; 12 weeks of treatment, NASH patients): safe and tolerable
- diarrhea events that were mild ([7]; all diarrhea events of the study): 97.4%
- placebo adjusted reduction in body weight ([7]; both doses (150 mg and 30 mg), 12 weeks, p=0.0001): ~4%

SMILES: O=C(O)c1cc(F)c2nc(N3C4CC[C@H]3CC(OCc3c(-c5ccccc5OC(F)(F)F)noc3C3CC3)C4)sc2c1 (stereo partly drawn) [tropifexor, 2-[(1R,3r,5S)-3-({5-cyclopropyl-3-[2-(trifluoromethoxy)phenyl]-1,2-oxazol-4-yl}methoxy)-8-azabicyclo[3.2.1]octan-8-yl]-4-fluoro-1,3-benzothiazole-6-carboxylic acid]
- low density lipoprotein-cholesterol (LDL-C) ([8]; 140 μg and 200 μg): dose-related increase
- frequency of serious adverse events ([8]; 140 μg and 200 μg vs placebo): low and comparable across groups
- ALT, LS mean absolute change (SE) from baseline to Week 12 ([8]; 140 μg once daily, n = 41, P = 0.058): −20.1 (4.57) U/L
- GGT, LS mean absolute change (SE) from baseline to Week 12 ([8]; 140 μg once daily, n = 44, P < 0.001): −39.2 (3.70) U/L
- Body weight, LS mean absolute change (SE) from baseline to Week 12 ([8]; 140 μg once daily, n = 46, P = 0.010): −2.46 (0.38) kg
- treatment discontinuation rate due to pruritus ([8]; 140 μg, n=1 (placebo 0%)): 2%
- pre-specified endpoints at week 12 ([8]; 200 μg once daily): met
- ALT, LS mean absolute change (SE) from baseline to Week 12 ([8]; 200 μg once daily, n = 39, P = 0.013): −23.6 (4.48) U/L
- Body weight, LS mean absolute change (SE) from baseline to Week 12 [8, 11]: −3.20 (0.37) kg
- GGT, LS mean absolute change (SE) from baseline to Week 12 [8, 11]: −40.9 (3.62) U/L
- treatment discontinuation rate due to pruritus ([8]; 200 μg, n=3 (placebo 0%)): 6%
- patients with pruritus whose events had mild (Grade 1) severity ([8]; both Tropifexor groups (140 μg, 200 μg)): > 60%
- ALT, HFF, and body weight after 12 weeks ([8]; higher doses (140 μg, 200 μg)): robust and dose-dependent decreases
- safety and tolerability after 12 weeks ([8]; higher doses (140 μg, 200 μg)): good safety and tolerability
- decrease of mean peak plasma concentration (Cmax,ss) [4, 12]: 15%
- decrease of total exposure (AUCtau,ss) [4, 12]: 12%
- biologic activity (GGT) [9, 13]: clear dose response
- target engagement (FGF19) [9, 13]: clear dose response
- ALT compared to placebo [9, 14]: reduced across all tropifexor doses
- hepatic fat fraction compared to placebo [9, 14]: reduced across all tropifexor doses
- tolerability ([9]; up to 90 μg daily): generally well tolerated up to 90 μg daily without safety signals

SMILES: O=C(O)c1ccnc(N2CC(O)(c3ccc(OCc4c(-c5c(Cl)cccc5Cl)noc4C4CC4)cc3Cl)C2)c1 [cilofexor]
- LDL uptake by hepatocytes (human hepatocytes; FIG. 5): reduce the LDL uptake by hepatocytes in a dose dependent manner; also recorded: decreased LDL uptake
